From patent publication EP2402030A1, “Linear IgE peptide epitopes of celery allergen api 1” (Charité Universitätsmedizin Berlin, priority 2010, dated 2012)

Test system: human IgE antibodies
Test: Human IgE antibody binding to SPOT-synthesized 12-meric Api g 1.0101 peptide arrays on N-CAPE cellulose membranes, probed with sera, HRP-labeled anti-human IgE, chemiluminescence
Conditions: for IgE binding in sera of healthy controls: sera of 17 healthy subjects; for IgE binding in sera of healthy controls / recognition by sera of celery allergic patients / celery allergic individuals responding to the peptide (positive IgE antibody binding spot): diluted 1:5; for number of celery allergic patients whose sera IgE antibodies bind the sequence / recognition by sera of celery allergic patients / celery allergic individuals responding to the peptide (positive IgE antibody binding spot): sera of 21 celery allergic patients; for celery allergic individuals responding to the peptide (positive IgE antibody binding spot): positive if SInorm above the membrane's cut off value
Text: The protein sequence of the major allergen in celery Api g 1.0101 (UniprotKB/Swissprot entry P49372) was dissected into sets of overlapping peptides (pepscan). Subsequently, these sequences were synthesized as peptide arrays on cellulose membranes according to SPOT technology. A highly specific secondary anti-human IgE antibody with minimum cross-reactivity towards cellulose membrane-bound peptides was employed.
Synthetic arrays were probed with sera randomly chosen from a well described cohort of subjects, including 21 patients with a defined allergic reaction to celery and 17 healthy individuals. Captured human IgE antibodies were detected by a HRP-labeled secondary antibody and binding was visualized by chemiluminescence.
The optimal conditions for screening the sera of 21 celery allergic patients and 17 healthy controls were as follows: (i) replica of a 12-meric pepscan with a shift of three amino acids covering the Api g 1.0101 sequence synthesized on high-loaded N-CAPE membranes (640 nmol/cm2 - 760 nmol/cm2); (ii) prior to treatment with sera, membranes were blocked with the Sigma-Genosys blocking buffer for 2 h at room temperature; (iii) arrays were probed for 16 h at 4°C with diluted sera (1:5) for IgE antibody binding; (iv) the captured human IgE antibodies were detected with the HRP-labeled anti-human IgE antibody (A 9667, Sigma-Aldrich) and visualized by chemiluminescence; (v) spot signal intensities were measured on a LumiImager and processed with the LumiAnalyst software. To check the reproducibility of our screening procedure, three different peptide arrays were incubated and evaluated for each person (allergic and healthy).
Sera binding patterns could be reproduced in repeated incubation experiments. Although inter-membrane absolute spot signal intensities differed, the relative differences between spot signal intensities were nearly the same. This enabled comparison of spot signal intensities from different membranes by applying an additional normalization procedure. We defined an IgE antibody binding spot as positive if its normalized signal intensity (SInorm) was higher than the calculated cut off value of the appropriate membrane.
Human IgE antibody binding studies: The spotted peptide arrays were prewashed with ethanol (1 × 10 min), washed with Tris-buffered saline (TBS), pH 8.0 (3 × 10 min), and blocked for 2 h at room temperature with blocking buffer. The membranes were incubated with the patients' sera (dilution 1:5) in blocking buffer overnight at 4°C, washed with TBS, followed by a second incubation with anti-human IgE antibody (ε-chain specific) conjugated with horse radish peroxidase (HRP) (A 9667, Sigma-Aldrich, St. Louis, USA) in blocking buffer for 2 h at room temperature. To remove excess antibody the membrane was washed with TBS (3x10 min). Detection was performed with Uptilight HRP blot chemiluminescent substrate (Uptima, Interchim, Montiuçon Cedex, France) with an exposure time of 2 min. The signal intensities were recorded as Biomedical Light Units (BLU) by a Lumi Imager™ (Boehringer Mannheim GmbH, Mannheim, Germany) using the LumiAnalyst software.
Measurement of spot signal intensities: Analysis and measurement of spot signal intensities were executed with the LumiAnalyst software, version 3.1 (Boehringer Mannheim GmbH, Mannheim, Germany). The spot signal was calculated from a circular region around the spot center detected on the image. To guarantee uniform spot signal assessment, and reduce signal variations caused by the background, we choose the background correction method in the LumiAnalyst software. This method allows local background correction when calculating the BLU of each spot. The background values of each spot were determined from BLU values around the spot with a safety margin and normalized to the area of the spot. Comparing replicas of several membranes, incubated under identical conditions, we found signal intensity deviations of a factor of 11. […]

Sequence: VLVPTADGGSIC [peptide 35, 12-meric peptide of Api g 1.0101]
- spot signal intensity (average spot signal intensity, Fig. 3): highest measured spot signal intensity
- IgE binding in sera of healthy controls: not reacting with any sera IgE antibody from healthy subjects
- IgE binding in sera of healthy controls (listed as VLVPTADGGSIC): no binding
- number of celery allergic patients whose sera IgE antibodies bind the sequence: at least six
- recognition by sera of celery allergic patients: recognized by the sera from all the celery allergic patients
- recognition by sera of celery allergic patients (listed as VLVPTADGGSIC): recognized by all sera of celery allergic patients
- celery allergic individuals responding to the peptide (positive IgE antibody binding spot): 100%

Sequence: NHVVLVPTADGG [peptide 34, 12-meric peptide located in the C-terminal region of Api g 1.0101]
- IgE binding in sera of healthy controls: not reacting with any sera IgE antibody from healthy subjects
- number of celery allergic patients whose sera IgE antibodies bind the sequence: at least six
- celery allergic individuals responding to the peptide (positive IgE antibody binding spot): 29%

Sequence: GGPITTMTLRID [compound 21, 12-meric peptide of Api g 1.0101]
- celery allergic individuals responding to the peptide (positive IgE antibody binding spot): 29%

Sequence: IITLPDGGPITT [compound 19, 12-meric peptide of Api g 1.0101]
- celery allergic individuals responding to the peptide (positive IgE antibody binding spot): 29%

Sequence: IFQGFVIDVDTV [peptide 7, 12-meric peptide of Api g 1.0101]
- IgE binding in sera of healthy controls: not reacting with any sera IgE antibody from healthy subjects
- number of celery allergic patients whose sera IgE antibodies bind the sequence: at least six
- celery allergic individuals responding to the peptide (positive IgE antibody binding spot): 38%

Sequence: GDGGPGTLKIIT [compound 16, 12-meric peptide of Api g 1.0101]
- celery allergic individuals responding to the peptide (positive IgE antibody binding spot): 38%

Sequence: PTADGGSICKTT [compound 36, 12-meric peptide of Api g 1.0101]
- celery allergic individuals responding to the peptide (positive IgE antibody binding spot): 43%
